In ChEMBL document CHEMBL4507280 (2021):

Assays:
[1] = target: Activin receptor type-1 (Homo sapiens) (UniProt Q04771); conditions: Compound concentration 1000.0 nM
[2] = target: Atypical kinase COQ8B, mitochondrial (Homo sapiens) (UniProt Q96D53); conditions: Compound concentration 1000.0 nM
[3] = target: Cytoplasmic tyrosine-protein kinase BMX (Homo sapiens) (UniProt P51813); conditions: Compound concentration 1000.0 nM
[4] = target: Serine/threonine-protein kinase B-raf (Homo sapiens) (UniProt P15056); conditions: Compound concentration 1000.0 nM
[5] = target: Calcium/calmodulin-dependent protein kinase type 1B (Homo sapiens) (UniProt Q6P2M8); conditions: Compound concentration 1000.0 nM
Chain of Calcium/calmodulin-dependent protein kinase type 1B (Homo sapiens) (Q6P2M8 whole entry): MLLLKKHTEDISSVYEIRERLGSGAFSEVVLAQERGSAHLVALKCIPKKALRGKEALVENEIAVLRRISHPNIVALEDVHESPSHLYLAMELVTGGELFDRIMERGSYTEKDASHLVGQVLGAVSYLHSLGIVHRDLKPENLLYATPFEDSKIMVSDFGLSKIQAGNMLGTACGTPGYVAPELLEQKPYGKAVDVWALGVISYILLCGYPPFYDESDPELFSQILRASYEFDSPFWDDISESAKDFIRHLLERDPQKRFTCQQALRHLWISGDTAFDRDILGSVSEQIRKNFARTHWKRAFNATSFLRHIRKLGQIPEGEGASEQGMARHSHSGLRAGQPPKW

[6] = target: Calcium/calmodulin-dependent protein kinase type II subunit delta (Homo sapiens) (UniProt Q13557); conditions: Compound concentration 1000.0 nM
[7] = target: Cyclin-dependent kinase 4 (Homo sapiens) (UniProt P11802); conditions: Compound concentration 1000.0 nM
Chain of Cyclin-dependent kinase 4 (Homo sapiens) (P11802 whole entry): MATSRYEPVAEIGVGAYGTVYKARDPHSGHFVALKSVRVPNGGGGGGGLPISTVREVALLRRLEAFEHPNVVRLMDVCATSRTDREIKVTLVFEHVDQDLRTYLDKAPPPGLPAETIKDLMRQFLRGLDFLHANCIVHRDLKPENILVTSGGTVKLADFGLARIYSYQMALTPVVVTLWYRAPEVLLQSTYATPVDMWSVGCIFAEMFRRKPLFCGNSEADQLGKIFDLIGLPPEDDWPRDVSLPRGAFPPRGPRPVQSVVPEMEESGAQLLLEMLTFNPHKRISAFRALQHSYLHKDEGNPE

[8] = target: Cyclin-dependent kinase 7 (Homo sapiens) (UniProt P50613); conditions: Compound concentration 1000.0 nM
[9] = target: Cyclin-dependent kinase-like 1 (Homo sapiens) (UniProt Q00532); conditions: Compound concentration 1000.0 nM
[10] = target: Dual specificity protein kinase CLK1 (Homo sapiens) (UniProt P49759); conditions: Compound concentration 1000.0 nM
[11] = target: Serine/threonine-protein kinase DCLK3 (Homo sapiens) (UniProt Q9C098); conditions: Compound concentration 1000.0 nM
[12] = target: Dual specificity tyrosine-phosphorylation-regulated kinase 2 (Homo sapiens) (UniProt Q92630); conditions: Compound concentration 1000.0 nM
[13] = target: Receptor tyrosine-protein kinase erbB-4 (Homo sapiens) (UniProt Q15303); conditions: Compound concentration 1000.0 nM
[14] = target: Mitogen-activated protein kinase 6 (Homo sapiens) (UniProt Q16659); conditions: Compound concentration 1000.0 nM
[15] = target: Homeodomain-interacting protein kinase 4 (Homo sapiens) (UniProt Q8NE63); conditions: Compound concentration 1000.0 nM
[16] = target: Inhibitor of nuclear factor kappa-B kinase subunit epsilon (Homo sapiens) (UniProt Q14164); conditions: Compound concentration 1000.0 nM
[17] = target: Insulin receptor-related protein (Homo sapiens) (UniProt P14616); conditions: Compound concentration 1000.0 nM
[18] = target: Mast/stem cell growth factor receptor Kit (Homo sapiens) (UniProt P10721); conditions: Compound concentration 1000.0 nM
[19] = target: Mitogen-activated protein kinase kinase kinase 13 (Homo sapiens) (UniProt O43283); conditions: Compound concentration 1000.0 nM
[20] = target: MAP kinase-activated protein kinase 5 (Homo sapiens) (UniProt Q8IW41); conditions: Compound concentration 1000.0 nM
[21] = target: MAP/microtubule affinity-regulating kinase 3 (Homo sapiens) (UniProt P27448); conditions: Compound concentration 1000.0 nM
[22] = target: Tyrosine-protein kinase Mer (Homo sapiens) (UniProt Q12866); conditions: Compound concentration 1000.0 nM
[23] = tested on: Hepatocyte growth factor receptor (Homo sapiens), P08581 [M1250T]; conditions: Compound concentration 1000.0 nM
[24] = target: Dual specificity mitogen-activated protein kinase kinase 7 (Homo sapiens) (UniProt O14733); conditions: Compound concentration 1000.0 nM
[25] = target: Serine/threonine-protein kinase MRCK alpha (Homo sapiens) (UniProt Q5VT25); conditions: Compound concentration 1000.0 nM
Chain of Serine/threonine-protein kinase MRCK alpha (Homo sapiens) (Q5VT25 whole entry): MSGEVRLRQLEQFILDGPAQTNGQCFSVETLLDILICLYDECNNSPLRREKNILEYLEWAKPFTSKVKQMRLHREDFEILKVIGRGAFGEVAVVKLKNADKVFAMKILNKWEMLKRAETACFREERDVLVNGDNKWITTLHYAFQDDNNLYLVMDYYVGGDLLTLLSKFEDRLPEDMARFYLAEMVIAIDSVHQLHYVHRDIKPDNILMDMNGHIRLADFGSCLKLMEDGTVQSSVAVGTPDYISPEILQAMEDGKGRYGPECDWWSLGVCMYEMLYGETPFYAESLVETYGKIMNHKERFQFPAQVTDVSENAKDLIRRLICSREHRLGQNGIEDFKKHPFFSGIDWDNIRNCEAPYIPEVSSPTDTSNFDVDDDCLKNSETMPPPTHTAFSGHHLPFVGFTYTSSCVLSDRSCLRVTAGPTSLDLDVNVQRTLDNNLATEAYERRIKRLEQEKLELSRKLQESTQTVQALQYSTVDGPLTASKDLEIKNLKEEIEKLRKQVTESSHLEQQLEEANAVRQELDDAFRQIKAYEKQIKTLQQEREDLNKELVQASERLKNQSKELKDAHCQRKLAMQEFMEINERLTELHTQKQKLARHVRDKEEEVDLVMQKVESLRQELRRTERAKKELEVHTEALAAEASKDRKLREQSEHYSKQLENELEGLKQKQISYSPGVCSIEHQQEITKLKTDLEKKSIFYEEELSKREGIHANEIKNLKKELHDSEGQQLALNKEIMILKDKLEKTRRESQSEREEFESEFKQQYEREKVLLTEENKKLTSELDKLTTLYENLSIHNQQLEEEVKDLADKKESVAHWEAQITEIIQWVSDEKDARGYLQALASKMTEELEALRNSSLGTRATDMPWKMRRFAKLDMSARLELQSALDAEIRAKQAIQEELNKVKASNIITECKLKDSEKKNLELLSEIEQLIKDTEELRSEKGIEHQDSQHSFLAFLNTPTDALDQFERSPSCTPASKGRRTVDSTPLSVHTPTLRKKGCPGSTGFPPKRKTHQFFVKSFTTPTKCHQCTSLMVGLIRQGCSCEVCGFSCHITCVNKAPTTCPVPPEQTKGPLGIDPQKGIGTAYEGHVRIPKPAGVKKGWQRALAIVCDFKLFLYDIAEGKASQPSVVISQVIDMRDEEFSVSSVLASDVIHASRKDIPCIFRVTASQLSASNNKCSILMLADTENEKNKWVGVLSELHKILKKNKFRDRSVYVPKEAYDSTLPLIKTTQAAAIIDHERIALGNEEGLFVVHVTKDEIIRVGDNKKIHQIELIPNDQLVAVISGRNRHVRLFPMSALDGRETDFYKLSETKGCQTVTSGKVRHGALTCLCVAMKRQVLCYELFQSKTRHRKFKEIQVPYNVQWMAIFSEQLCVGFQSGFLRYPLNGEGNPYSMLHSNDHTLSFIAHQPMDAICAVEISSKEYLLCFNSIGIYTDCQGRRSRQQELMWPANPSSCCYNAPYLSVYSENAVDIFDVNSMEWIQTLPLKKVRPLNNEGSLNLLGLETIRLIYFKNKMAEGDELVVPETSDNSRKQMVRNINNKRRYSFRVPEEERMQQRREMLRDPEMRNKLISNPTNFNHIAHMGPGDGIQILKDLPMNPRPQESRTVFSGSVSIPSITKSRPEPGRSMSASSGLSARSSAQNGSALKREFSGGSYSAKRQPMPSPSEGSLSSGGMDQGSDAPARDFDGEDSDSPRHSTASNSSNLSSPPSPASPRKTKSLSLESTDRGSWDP

[26] = target: Serine/threonine-protein kinase 3 (Homo sapiens) (UniProt Q13188); conditions: Compound concentration 1000.0 nM
[27] = target: Serine/threonine-protein kinase 26 (Homo sapiens) (UniProt Q9P289); conditions: Compound concentration 1000.0 nM
[28] = target: Myosin-IIIb (Homo sapiens) (UniProt Q8WXR4); conditions: Compound concentration 1000.0 nM
[29] = target: Serine/threonine-protein kinase 38-like (Homo sapiens) (UniProt Q9Y2H1); conditions: Compound concentration 1000.0 nM
Chain of Serine/threonine-protein kinase 38-like (Homo sapiens) (Q9Y2H1 2-464 limits assumed): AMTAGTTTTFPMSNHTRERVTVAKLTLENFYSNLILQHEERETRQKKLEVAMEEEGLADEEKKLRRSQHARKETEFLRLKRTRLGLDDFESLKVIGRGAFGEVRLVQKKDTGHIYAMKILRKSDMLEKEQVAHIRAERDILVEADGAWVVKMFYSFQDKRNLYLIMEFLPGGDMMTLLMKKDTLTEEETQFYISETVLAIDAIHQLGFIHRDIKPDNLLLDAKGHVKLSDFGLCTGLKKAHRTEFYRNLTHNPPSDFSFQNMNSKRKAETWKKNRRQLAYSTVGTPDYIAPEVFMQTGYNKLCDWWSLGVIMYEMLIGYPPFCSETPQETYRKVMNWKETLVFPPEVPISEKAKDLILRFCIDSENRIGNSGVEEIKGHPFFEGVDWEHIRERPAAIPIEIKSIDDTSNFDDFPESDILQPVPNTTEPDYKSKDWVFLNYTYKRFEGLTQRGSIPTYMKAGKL

[30] = target: Serine/threonine-protein kinase Nek2 (Homo sapiens) (UniProt P51955); conditions: Compound concentration 1000.0 nM
[31] = target: Serine/threonine-protein kinase Nek5 (Homo sapiens) (UniProt Q6P3R8); conditions: Compound concentration 1000.0 nM
[32] = target: Mitogen-activated protein kinase 14 (Homo sapiens) (UniProt Q16539); conditions: Compound concentration 1000.0 nM
Chain of Mitogen-activated protein kinase 14 (Homo sapiens) (Q16539 whole entry): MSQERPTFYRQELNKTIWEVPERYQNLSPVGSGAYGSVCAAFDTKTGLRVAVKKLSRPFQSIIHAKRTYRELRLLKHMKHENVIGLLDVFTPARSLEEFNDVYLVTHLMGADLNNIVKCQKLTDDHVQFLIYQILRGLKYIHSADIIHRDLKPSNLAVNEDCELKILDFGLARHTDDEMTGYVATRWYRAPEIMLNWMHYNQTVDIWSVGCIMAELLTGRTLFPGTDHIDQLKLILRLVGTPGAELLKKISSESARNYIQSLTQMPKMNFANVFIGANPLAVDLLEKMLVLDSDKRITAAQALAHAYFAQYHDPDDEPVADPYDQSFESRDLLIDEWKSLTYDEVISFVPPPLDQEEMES

[33] = target: Mitogen-activated protein kinase 13 (Homo sapiens) (UniProt O15264); conditions: Compound concentration 1000.0 nM
[34] = target: Phosphatidylinositol 4,5-bisphosphate 3-kinase catalytic subunit beta isoform (Homo sapiens) (UniProt P42338); conditions: Compound concentration 1000.0 nM
[35] = target: Phosphatidylinositol 4-phosphate 5-kinase type-1 gamma (Homo sapiens) (UniProt O60331); conditions: Compound concentration 1000.0 nM
[36] = target: Serine/threonine-protein kinase PLK3 (Homo sapiens) (UniProt Q9H4B4); conditions: Compound concentration 1000.0 nM
[37] = target: Protein kinase C epsilon type (Homo sapiens) (UniProt Q02156); conditions: Compound concentration 1000.0 nM
[38] = target: Receptor-interacting serine/threonine-protein kinase 4 (Homo sapiens) (UniProt P57078); conditions: Compound concentration 1000.0 nM
[39] = target: SRSF protein kinase 2 (Homo sapiens) (UniProt P78362); conditions: Compound concentration 1000.0 nM
[40] = target: Serine/threonine-protein kinase ULK1 (Homo sapiens) (UniProt O75385); conditions: Compound concentration 1000.0 nM
[41] = target: Vascular endothelial growth factor receptor 2 (Homo sapiens) (UniProt P35968); conditions: Compound concentration 1000.0 nM
[42] = target: Wee1-like protein kinase 2 (Homo sapiens) (UniProt P0C1S8); conditions: Compound concentration 1000.0 nM
[43] = target: Serine/threonine-protein kinase WNK3 (Homo sapiens) (UniProt Q9BYP7); conditions: Compound concentration 1000.0 nM
Chain of Serine/threonine-protein kinase WNK3 (Homo sapiens) (Q9BYP7 whole entry): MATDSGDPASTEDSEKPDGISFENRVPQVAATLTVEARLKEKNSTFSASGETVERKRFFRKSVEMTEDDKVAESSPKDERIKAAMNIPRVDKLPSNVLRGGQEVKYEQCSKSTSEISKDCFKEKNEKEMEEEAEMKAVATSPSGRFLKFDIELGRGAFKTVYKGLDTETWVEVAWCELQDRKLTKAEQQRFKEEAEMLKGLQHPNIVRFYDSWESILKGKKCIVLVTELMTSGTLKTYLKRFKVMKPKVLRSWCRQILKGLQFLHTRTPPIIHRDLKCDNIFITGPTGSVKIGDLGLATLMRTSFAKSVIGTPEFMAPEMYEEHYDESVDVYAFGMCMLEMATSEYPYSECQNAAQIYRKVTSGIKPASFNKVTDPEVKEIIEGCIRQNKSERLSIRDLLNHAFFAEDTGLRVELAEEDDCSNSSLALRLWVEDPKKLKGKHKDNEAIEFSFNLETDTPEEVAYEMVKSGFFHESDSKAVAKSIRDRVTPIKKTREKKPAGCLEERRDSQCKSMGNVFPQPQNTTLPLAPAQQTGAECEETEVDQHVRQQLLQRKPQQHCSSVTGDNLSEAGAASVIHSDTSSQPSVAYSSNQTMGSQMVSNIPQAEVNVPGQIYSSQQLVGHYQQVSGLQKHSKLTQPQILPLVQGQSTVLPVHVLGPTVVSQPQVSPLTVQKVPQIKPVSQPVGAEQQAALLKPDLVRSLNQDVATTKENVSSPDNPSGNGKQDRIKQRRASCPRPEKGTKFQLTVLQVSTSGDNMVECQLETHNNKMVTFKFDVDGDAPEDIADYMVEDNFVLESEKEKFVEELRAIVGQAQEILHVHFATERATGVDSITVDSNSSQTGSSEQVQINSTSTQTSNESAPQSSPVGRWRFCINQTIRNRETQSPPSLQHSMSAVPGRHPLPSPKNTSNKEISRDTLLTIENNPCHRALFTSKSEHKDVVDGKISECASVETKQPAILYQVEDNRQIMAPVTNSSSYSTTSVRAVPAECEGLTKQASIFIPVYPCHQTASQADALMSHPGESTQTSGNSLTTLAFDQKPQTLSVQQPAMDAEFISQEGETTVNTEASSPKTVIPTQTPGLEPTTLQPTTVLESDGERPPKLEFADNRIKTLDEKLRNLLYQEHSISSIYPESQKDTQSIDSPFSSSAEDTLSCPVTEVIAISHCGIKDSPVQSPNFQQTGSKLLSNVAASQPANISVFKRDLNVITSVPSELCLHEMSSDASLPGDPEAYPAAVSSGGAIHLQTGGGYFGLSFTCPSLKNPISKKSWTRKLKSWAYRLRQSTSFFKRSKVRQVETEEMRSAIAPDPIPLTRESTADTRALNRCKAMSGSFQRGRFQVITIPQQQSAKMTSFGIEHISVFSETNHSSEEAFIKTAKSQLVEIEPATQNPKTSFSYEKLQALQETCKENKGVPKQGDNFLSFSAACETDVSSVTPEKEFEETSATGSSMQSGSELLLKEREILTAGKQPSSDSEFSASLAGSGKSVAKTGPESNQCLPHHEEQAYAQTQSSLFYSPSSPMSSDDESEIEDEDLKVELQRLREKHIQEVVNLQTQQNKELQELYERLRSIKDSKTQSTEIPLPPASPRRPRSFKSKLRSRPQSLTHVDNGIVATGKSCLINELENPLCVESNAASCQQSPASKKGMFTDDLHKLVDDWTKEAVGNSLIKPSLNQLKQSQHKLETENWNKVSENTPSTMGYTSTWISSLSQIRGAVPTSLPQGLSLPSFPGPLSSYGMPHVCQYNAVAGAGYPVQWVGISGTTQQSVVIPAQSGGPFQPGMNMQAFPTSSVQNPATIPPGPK

[44] = target: Tyrosine-protein kinase Yes (Homo sapiens) (UniProt P07947); conditions: Compound concentration 1000.0 nM
[45] = target: Sigma non-opioid intracellular receptor 1 (Homo sapiens) (UniProt Q99720); conditions: Compound concentration 10.0 uM

CCC(=O)N[C@H]1CC[C@@H](C(=O)N(C)c2ccc(-c3nc4ccccc4o3)cc2)C1 [BI 99179]
inactive: residual activity [1] 85% | residual activity [2] 74% | residual activity [3] 100% | residual activity [4] 100% | residual activity [5] 92% | residual activity [6] 91% | residual activity [7] 88% | residual activity [8] 79% | residual activity [9] 95% | residual activity [10] 93% | residual activity [11] 87% | residual activity [12] 87% | residual activity [13] 100% | residual activity [14] 100% | residual activity [15] 100% | residual activity [16] 52% | residual activity [17] 100% | residual activity [18] 94% | residual activity [19] 87% | residual activity [20] 73% | residual activity [21] 96% | residual activity [22] 100% | residual activity [23] 92% | residual activity [24] 82% | residual activity [25] 87% | residual activity [26] 100% | residual activity [27] 76% | residual activity [28] 98% | residual activity [29] 79% | residual activity [30] 100% | residual activity [31] 100% | residual activity [32] 100% | residual activity [33] 85% | residual activity [34] 100% | residual activity [35] 100% | residual activity [36] 74% | residual activity [37] 90% | residual activity [38] 50% | residual activity [39] 61% | residual activity [40] 78% | residual activity [41] 75% | residual activity [42] 96% | residual activity [43] 92% | residual activity [44] 82% | inhibition [45] 9.78%

CCC(=O)N[C@@H]1CC[C@H](C(=O)N(C)c2ccc(-c3nc4ccccc4o3)cc2)C1 [BI 99990]
inactive: residual activity [1] 94% | residual activity [2] 94% | residual activity [3] 98% | residual activity [4] 96% | residual activity [5] 100% | residual activity [6] 100% | residual activity [7] 100% | residual activity [8] 85% | residual activity [9] 90% | residual activity [10] 100% | residual activity [11] 100% | residual activity [12] 100% | residual activity [13] 100% | residual activity [14] 100% | residual activity [15] 100% | residual activity [16] 60% | residual activity [17] 100% | residual activity [18] 100% | residual activity [19] 100% | residual activity [20] 100% | residual activity [21] 100% | residual activity [22] 100% | residual activity [23] 100% | residual activity [24] 98% | residual activity [25] 100% | residual activity [26] 100% | residual activity [27] 77% | residual activity [28] 100% | residual activity [29] 100% | residual activity [30] 100% | residual activity [31] 100% | residual activity [32] 95% | residual activity [33] 100% | residual activity [34] 100% | residual activity [35] 100% | residual activity [36] 84% | residual activity [37] 93% | residual activity [38] 72% | residual activity [39] 100% | residual activity [40] 100% | residual activity [41] 77% | residual activity [42] 100% | residual activity [43] 100% | residual activity [44] 100% | inhibition [45] 38.3%
